{"source": "patent US20240208963A1", "about": "“CRYSTALLINE MELANOCORTIN SUBTYPE-2 RECEPTOR (MC2R) ANTAGONIST” (Crinetics Pharmaceuticals, Inc., priority 2022, published 2024)", "key": {"[1]": {"test": "Dynamic vapor sorption (DVS)", "assay_type": "physicochemical", "method": "DVS was performed using a DVS Intrinsic 1. The sample (20-25 mg) was loaded into a sample pan, suspended from a microbalance and exposed to a humidified stream of nitrogen gas. The sample was held for a minimum of 5 min at each level and only progressed to the next humidity level if there was <0.002% change in weight between measurements (interval: 60 s) or 240 min had elapsed. The following program was used: • 1. Equilibration at 50% RH • 2. 50% to 2%. (50%, 40%, 30%, 20%, 10%, and 2%) • 3. 2% to 95% (2%, 10%, 20%, 30%, 40%, 50%, 60%, 70%, 80%, 90%, and 95%) • 4. 95% to 2% (95%, 80%, 70%, 60%, 50%, 40%, 30%, 20%, 10%, and 2%) • 5. 2% to 50% (2%, 10%, 20%, 30%, 40%, and 50%)"}, "[2]": {"test": "Salt screening XRPD stages: drying and overnight humidity exposure", "settings": "for Form stability upon drying (XRPD): dried under vacuum at 50° C. for at least 3 h", "protocol": "XRPD analysis is typically done in three stages: 1) Wet: XRPD of the wet cake is done for all samples whenever solids appropriate for sampling were observed. 2) Dry: Unique solids are then left on XRPD plates and dried under vacuum at 50° C. for at least 3 h. XRPD of unique dry solids are then collected. 3) Humid: Solids are then exposed to >95% relative humidity overnight and XRPD on resulting solids is collected. The humid environment is generated by placing a beaker of saturated potassium sulfate in water in a sealed container. This procedure is not carried out for any amorphous solids obtained. All XRPD patterns are compared to counter ion XRPD patterns and known free molecule patterns.\nA qualitive humidity exposure test was performed by exposing approximately 10 mg of the maleate to 80% RH overnight."}, "[3]": {"test": "Solubility in simulated fluids and water", "assay_type": "physicochemical", "settings": "37° C., 30 min", "method": "Calibration samples for solubility in simulated fluids were prepared with freebase Compound I.\nSolubility in simulated fluids were studied with the mandelate and maleate solids. The simulated fluids FaSSIF (fasted-state intestinal), FaSSGF (fasted-state gastric), and FeSSIF (fed-state intestinal) were removed from the refrigerator, warmed to room temperature, and the pH of each was measured. Between 1.9 and 2.0 mg of each salt was weighed into four vials and 1 mL of each fluid was added, including water. Stir bars (10 mm) were added to the vials and the vials were stirred at 37° C. After 30 mi (mandelate samples) or 1 h (maleate samples), the pH of each solution was measured, then 400 μL of each was removed and syringe filtered with 0.45 µm syringe filters. Approximately 300 μL of the recovered filtrate was diluted 5× with diluent and injected for HPLC analysis. The remainder of the samples in the vials were allowed to stir overnight. After 24 h stirring at 37° C., samples were filtered and diluted as before, and injected for analysis."}, "[4]": {"test": "Stability of crystalline forms at 40° C. and 75% relative humidity (XRPD, HPLC purity)", "protocol": "Approximately 10 mg of the Crystalline Pattern D of Compound I Maleate, 20 mg of the Crystalline Pattern C of Compound I Maleate, and 10 mg of the Crystalline Pattern E of Compound I Mandelate were weighed into open 4 mL vials that were placed into a 20 mL vial containing a saturated NaCl solution. The vial was sealed and kept at 40° C. for 7 days, creating an atmosphere at 75% relative humidity in the system. After 7 days, the materials were sampled and plated for XRPD analysis.\nThe stability test was repeated on Patterns C and D of Compound I Maleate for 11 days."}, "[5]": {"test": "Form stability at ambient conditions for one week (XRPD)", "assay_type": "physicochemical", "settings": "maleate", "text": "Some of the samples generated in the antisolvent crystallization experiments were mixtures of Pattern B, Pattern C, and Pattern D. These samples were left at ambient conditions for one week, then analyzed again by XRPD.\nPure Pattern B was generated in the antisolvent crystallization with MIBK and heptane. […] The solids were scraped from the XRPD plate and used for simultaneous TGA/DSC analysis. […] After the solids required for the TGA/DSC analysis were transferred to the pan, the remainder of the solids were re-pressed to the XRPD sample plate and analyzed again."}, "[6]": {"test": "Solubility of solid state forms in solvents (gravimetric or solvent addition)", "assay_type": "physicochemical", "method": "The solubility of certain solid state forms of Compound I was determined in various solvents by either gravimetric solubility or solvent addition.\nAbout 25 mg of compound was weighed into vials. Approximately 5 vol. (0.125 mL) of solvent was added to the solids and the mixtures stirred at the designated temperature (RT or 50° C.). Solutions were noted and an additional 0.125 mL of solvent was added to the slurries. […] If a thicker slurry was noted, 0.25 mL of solvent was added (total volume 0.5 mL). If a thick slurry was again noted, an additional 0.25 mL of solvent was added (total volume 0.75 mL). After stirring for 2 days, the slurries were centrifuged, the supernatant was collected into preweighed vials, and the solvent evaporated at 50° C. (ambient pressure) without stirring. The vials containing the solid residues were dried in a vacuum oven at 50 C, 10^−2-10^−1 Torr, for 3 h before weighing again to determine the mass of solid that was dissolved in the supernatant (i.e. mg solid/mL solvent).\nAbout 20 mg of compound was weighed into vials. Solvent was added in aliquots and stirred at the designated temperature until complete dissolution was observed. This measurement gave a solubility range."}, "[7]": {"settings": "40° C., 75% relative humidity, 7 days"}}, "note": "Entries after “also recorded” stand apart in the source; their conditions may differ. Structures can show the parent of a compound that is named as a salt. Where two headings read alike, the source gives them in different places. Marks after values point to notes of the source that are not given here.", "data": [{"compound": "N-[(3S)-1-azabicyclo[2.2.2]octan-3-yl]-6-(2-ethoxyphenyl)-3-[(2R)-2-ethyl-4-[1-(trifluoromethyl)-cyclobutanecarbonyl]piperazin-1-yl]pyridine-2-carboxamide mandelate [mandelate Pattern E]", "values": [{"measurement": "Hygroscopicity (in words)", "setting": "[1]; DVS", "result": "moderately hygroscopic"}, {"measurement": "Change by XRPD following the DVS analysis", "setting": "[1]; after DVS from 2 to 95% RH", "result": "No change"}, {"measurement": "Reversible mass gain (DVS)", "setting": "[1]; from 2 to 95% relative humidity", "result": 5.68, "unit": "wt. %"}, {"measurement": "Behaviour at high humidity", "setting": "[1]; high humidity", "result": "began to convert to amorphous"}, {"measurement": "Stability after humidity exposure (XRPD, deliquescence)", "setting": "[2]; >90% relative humidity overnight", "result": "no deliquescence or loss of crystallinity"}, {"measurement": "Form stability upon drying (XRPD)", "setting": "[2]", "result": "stable"}, {"measurement": "Sample pH", "setting": "[3]; FaSSGF (initial pH 1.49)", "result": 1.53}, {"measurement": "Sample pH", "setting": "[3]; FaSSIF (initial pH 6.35)", "result": 6.41}, {"measurement": "Sample pH", "setting": "[3]; FeSSIF (initial pH 4.83)", "result": 4.89}, {"measurement": "Change by XRPD after storage", "setting": "[4]; [7]", "result": "No visible change"}, {"measurement": "Degradation by HPLC purity analysis after storage", "setting": "[4]; [7]", "result": "no degradation"}, {"measurement": "Stability on storage (in words)", "setting": "[4]; over a week at 40° C. and 75% RH", "result": "stable"}]}, {"compound": "CCOc1ccccc1-c1ccc(N2CCN(C(=O)C3(C(F)(F)F)CCC3)C[C@H]2CC)c(C(=O)N[C@@H]2CN3CCC2CC3)n1.O=C(O)/C=C\\C(=O)O", "note": "[Pattern B, N-[(3S)-1-azabicyclo[2.2.2]octan-3-yl]-6-(2-ethoxyphenyl)-3-[(2R)-2-ethyl-4-[1-(trifluoromethyl)-cyclobutanecarbonyl]piperazin-1-yl]pyridine-2-carboxamide maleate]", "values": [{"measurement": "Form stability upon drying (XRPD)", "setting": "[2]", "result": "mostly converts to Pattern C"}, {"measurement": "Form conversion by XRPD at ambient conditions", "setting": "[5]", "result": "converted to Pattern C; also recorded: some low intensity peaks associated with Pattern C"}]}, {"compound": "CCOc1ccccc1-c1ccc(N2CCN(C(=O)C3(C(F)(F)F)CCC3)C[C@H]2CC)c(C(=O)N[C@@H]2CN3CCC2CC3)n1", "note": "[Compound I Maleate, N-[(3S)-1-azabicyclo[2.2.2]octan-3-yl]-6-(2-ethoxyphenyl)-3-[(2R)-2-ethyl-4-[1-(trifluoromethyl)-cyclobutanecarbonyl]piperazin-1-yl]pyridine-2-carboxamide maleate]", "values": [{"measurement": "Mass gain in qualitative humidity exposure test", "setting": "[2]; 80% RH overnight, approximately 10 mg", "result": "No detectable mass gain"}, {"measurement": "solubility", "setting": "[6]; EtOAc, 50° C., maleate", "result": 34, "unit": "mg/mL"}, {"measurement": "solubility", "setting": "[6]; EtOAc, RT, maleate", "result": 21, "unit": "mg/mL"}, {"measurement": "solubility", "setting": "[6]; EtOH, RT, maleate", "result": ">200", "unit": "mg/mL"}, {"measurement": "solubility", "setting": "[6]; IPAc, 50° C., maleate", "result": 13, "unit": "mg/mL"}, {"measurement": "solubility", "setting": "[6]; IPAc, RT, maleate", "result": 8, "unit": "mg/mL"}, {"measurement": "solubility", "setting": "[6]; MEK, RT, maleate", "result": ">200", "unit": "mg/mL"}, {"measurement": "solubility", "setting": "[6]; MIBK, 50° C., maleate", "result": 71, "unit": "mg/mL"}, {"measurement": "solubility", "setting": "[6]; MIBK, RT, maleate", "result": 49, "unit": "mg/mL"}, {"measurement": "solubility", "setting": "[6]; MeOH, RT, maleate", "result": ">200", "unit": "mg/mL"}, {"measurement": "solubility", "setting": "[6]; MtBE, 50° C., maleate", "result": 4, "unit": "mg/mL"}, {"measurement": "solubility", "setting": "[6]; MtBE, RT, maleate", "result": 4, "unit": "mg/mL"}, {"measurement": "solubility", "setting": "[6]; THF, RT, maleate", "result": ">200", "unit": "mg/mL"}, {"measurement": "solubility", "setting": "[6]; acetone, RT, maleate", "result": ">200", "unit": "mg/mL"}, {"measurement": "solubility", "setting": "[6]; cyclohexane, 50 °C, organic solvent or mixture, thermodynamic from solid, cyclohexane, 50° C., read-out: Solubility", "result": 3, "unit": "mg/mL"}, {"measurement": "solubility", "setting": "[6]; cyclohexane, organic solvent or mixture, thermodynamic from solid, cyclohexane, RT, read-out: Solubility", "result": "< 3", "unit": "mg/mL"}, {"measurement": "solubility", "setting": "[6]; n-heptane, 50° C., maleate", "result": 3, "unit": "mg/mL"}, {"measurement": "solubility", "setting": "[6]; n-heptane, RT, maleate", "result": "<3", "unit": "mg/mL"}]}, {"compound": "CCOc1ccccc1-c1ccc(N2CCN(C(=O)C3(C(F)(F)F)CCC3)C[C@H]2CC)c(C(=O)N[C@@H]2CN3CCC2CC3)n1", "note": "[Compound I, N-[(3S)-1-azabicyclo[2.2.2]octan-3-yl]-6-(2-ethoxyphenyl)-3-[(2R)-2-ethyl-4-[1-(trifluoromethyl)-cyclobutanecarbonyl]piperazin-1-yl]pyridine-2-carboxamide]", "values": [{"measurement": "solubility", "setting": "[6]; EtOAc, RT, listed as Amorphous free base", "result": ">500^a mg/mL"}, {"measurement": "solubility", "setting": "[6]; EtOH, RT, listed as Amorphous free base", "result": ">500^a mg/mL"}, {"measurement": "solubility", "setting": "[6]; IPA:water (1:1 vol.), aqueous with cosolvent or surfactant or cyclodextrin, thermodynamic from solid, IPA:water (1:1 vol.), RT, read-out: Solubility", "result": "167 to 250", "unit": "mg/mL"}, {"measurement": "solubility", "setting": "[6]; MIBK, RT, listed as Amorphous free base", "result": ">500^a mg/mL"}, {"measurement": "solubility", "setting": "[6]; MtBE, RT, listed as Amorphous free base", "result": ">500^a mg/mL"}, {"measurement": "solubility", "setting": "[6]; acetone, RT, listed as Amorphous free base", "result": ">500^a mg/mL"}, {"measurement": "Solubility (in words)", "setting": "[6]; all solvents tested except heptane and IPA:water (1:1 vol.)", "result": "freely soluble"}, {"measurement": "Solubility (in words)", "setting": "[6]; heptane", "result": "low solubility"}, {"measurement": "solubility", "setting": "[6]; n-heptane, RT, listed as Amorphous free base", "result": "<26", "unit": "mg/mL"}, {"measurement": "solubility", "setting": "[6]; toluene, organic solvent or mixture, thermodynamic from solid, toluene, RT, read-out: Solubility", "result": "> 500", "unit": "mg/mL"}]}]}
